Columns and labels:
[1] = PK and toxicological studies, plasma and liver concentrations; type: in vivo; conditions: oral combination of the IMT and Venetoclax in 0.5% methyl cellulose in water, NBSGW mice, 4 hours, plasma and liver (FIG. 4)
Protocol: Combinations s of 2-[(3R)-1-[(2R)-2-[4-(2-chloro-4-fluoro-phenyl)-2-oxo-chromen-7-yl]oxypropanoyl]-3-piperidyl]acetic acid and Venetoclax were administered orally in a formulation of 0.5% methyl cellulose in water, before the respective substance concentrations (y-axis) of Venetoclax (left) or 2-[(3R)-1-[(2R)-2-[4-(2-chloro-4-fluoro-phenyl)-2-oxo-chromen-7-yl]oxypropanoyl]-3-piperidyl]acetic acid (right) after 4 hours and extraction from blood plasma or liver tissue were analysed by LC-MS. Error bars indicate the standard deviation around the mean of the multiple measurements.
For this, a vehicle formulation suitable for the oral administration of the combination of Venetoclax and 2-[(3R)-1-[(2R)-2-[4-(2-chloro-4-fluoro-phenyl)-2-oxo-chromen-7-yl]oxypropanoyl]-3-piperidyl]acetic acid was prepared to examine its pharmacokinetic suitability. Since the formulations based on ethanol, PEG-400 and Phosal that have been published for Venetoclax have not proven to be suitable for generating an administrable solution or suspension of IMT and Venetoclax, a simplified formulation of 0.5% methyl cellulose in water was prepared, which was tested initially in PK and toxicological studies in NBSGW mice (FIG. 4). […] On the other hand, doses that could be safely used were established in this mouse model, with which the subsequent studies could be carried out.

[2] = test system: A2780; experiment: CellTiter-GLO (CTG) assay, combinatorial matrix; type: cell-based; conditions: for Measured residual activity (%) based on an untreated control group (=100%): A2780, 72 h, cellular ATP content (CellTiter-GLO)
Protocol: To determine the in vitro cellular viability, cellular ATP concentrations were measured using a luminescence-based homogenous assay format, as described here. […] Optimal cell density for each cell line was determined to guarantee linearity. For viability assays with compounds, cells were then seeded at a density of 200 to 1000 per well in 25 μl in 384-well plates (Greiner Bio-One, Frickenhausen, Germany). After overnight incubation at 37° C./5% CO2, 25 nl or 75 nl compounds were added to each sample well by using BIOMEK FXP Laboratory Automation Workstation (Beckman Coulter, USA). Wells with cells and 0.1% or 0.3% DMSO in culture medium were used as positive controls, wells with cells and 10 μM staurosporine (Selleck Chemicals, Huston, USA) in culture medium were used as negative controls. Upon incubation with compounds for 72 h at 37° C./5% CO2 25 μl Cell Titer Glo reagent (Promega, Madison, USA, European Pat. No. 1131441, U.S. Pat. Nos. 7,083,911, 7,452,663 and 7,732,128) 1:2 diluted with cell culture medium) was added to each well to determine cell viability. 384well-plates were placed for 2 min on an orbital microplate shaker and incubated for further 10 min at room temperature resulting in a stabilization of light signal. Luminescence was measured by Envision Plate Reader (Perkin Elmer, USA).
All in vitro cell culture experiments were carried out under near physiological glucose concentrations (5 mM) in at least two independent replicates.

[3] = test system: A2780 ovarian carcinoma xenograft; experiment: in vivo xenograft study with IMT and MEKi in A2780
Protocol: Time course of tumour growth (top) and body weight change (bottom). Transplant with A2780 on day 0, stratification on day six into six groups (n=8). Treatment with vehicle formulation, twice daily 25 mg/kg or 12.5 mg/kg Selumetinib, once daily 100 mg/kg (3S)-1-[(2R)-2-[4-(2-chloro-4-fluoro-phenyl)-2-oxo-chromen-7-yl]oxypropanoyl]piperidine-3-carboxylic acid, or the combination of IMT with 12.5 mg/kg MEKi or 25 mg/kg MEKi as indicated. Error bars indicate the standard deviation of the respective group. * indicates significant differences from the control group (nonparametric Whitnes-U test, p<0.05).
Female NMRI: nu/nu mice were injected subcutaneously with the ovarian carcinoma cell line and, after reaching a palpable tumour volume of 0.2 cm3, were randomized and divided into groups of eight animals each. In addition to a control group, which was administered only with the vehicle formulation, additional groups were given 100 mg/kg (3S)-1-[(2R)-2-[4-(2-chloro-4-fluoro-phenyl)-2-oxo-chromen-7-yl]oxypropanoyl]piperidine-3-carboxylic acid, 12.5 mg/kg AZD6244, 25 mg/kg AZD6244 or the combination of 100 mg/kg (3S)-1-[(2R)-2-[4-(2-chloro-4-fluoro-phenyl)-2-oxo-chromen-7-yl]oxypropanoyl]piperidine-3-carboxylic acid and 12.5 or 25 mg/kg AZD6244 was administered. The substance was administered orally over 21 days, twice daily in 25% PEG400, 57% HPbCD. […]

[4] = test system: HEC59; experiment: CellTiter-GLO (CTG) assay, combinatorial matrix; type: cell-based; conditions: 30 μM to 15 nM IMT + 30 μM to 40 nM BAY-876

Structure (SMILES): CC1(C)CCC(CN2CCN(c3ccc(C(=O)NS(=O)(=O)c4ccc(NCC5CCOCC5)c([N+](=O)[O-])c4)c(Oc4cnc5[nH]ccc5c4)c3)CC2)=C(c2ccc(Cl)cc2)C1 [Venetoclax]
- PK parameters, in particular the plasma and tissue concentrations [1]: do not significantly influence one another

Structure (SMILES): C[C@@H](Oc1ccc2c(-c3ccc(F)cc3Cl)cc(=O)oc2c1)C(=O)N1CCC[C@H](C(=O)O)C1 [(3S)-1-[(2R)-2-[4-(2-chloro-4-fluoro-phenyl)-2-oxo-chromen-7-yl]oxypropanoyl]piperidine-3-carboxylic acid]
- Measured residual activity (%) based on an untreated control group (=100%) ([2]; Teriflunomide 0 = IMT alone at the concentration (μM) in c1 of the row, IMT 0.12 µM): 32%
- Measured residual activity (%) based on an untreated control group (=100%) ([2]; Teriflunomide 0 = IMT alone at the concentration (μM) in c1 of the row, IMT 15 µM): 28%
- Measured residual activity (%) based on an untreated control group (=100%) ([2]; Teriflunomide 0.04 (μM) + IMT (μM) (30-0), IMT 0.12 µM): 31%
- Measured residual activity (%) based on an untreated control group (=100%) ([2]; Teriflunomide 0.04 (μM) + IMT (μM) (30-0), IMT 0.47 µM): 28%
- Measured residual activity (%) based on an untreated control group (=100%) ([2]; Teriflunomide 0.04 (μM) + IMT (μM) (30-0), IMT 7.5 µM): 27%
- Measured residual activity (%) based on an untreated control group (=100%) ([2]; Teriflunomide 0.1 (μM) + IMT at the concentration (μM) in c1 of the row (30-0), IMT 0.23 µM): 29%
- Measured residual activity (%) based on an untreated control group (=100%) ([2]; Teriflunomide 0.1 (μM) + IMT at the concentration (μM) in c1 of the row (30-0), IMT 7.5 µM): 22%
- Measured residual activity (%) based on an untreated control group (=100%) ([2]; Teriflunomide 0.4 (μM) + IMT at the concentration (μM) in c1 of the row (30-0), IMT 0.06 µM): 32%
- Measured residual activity (%) based on an untreated control group (=100%) ([2]; Teriflunomide 0.4 (μM) + IMT at the concentration (μM) in c1 of the row (30-0), IMT 7.5 µM): 22%
- Measured residual activity (%) based on an untreated control group (=100%) ([2]; Teriflunomide 0.4 (μM) + IMT at the concentration (μM) in c1 of the row (30-0), IMT 15 µM): 25%
- Measured residual activity (%) based on an untreated control group (=100%) ([2]; Teriflunomide 1.1 (μM) + IMT at the concentration (μM) in c1 of the row (30-0), IMT 0.06 µM): 30%
- Measured residual activity (%) based on an untreated control group (=100%) ([2]; Teriflunomide 1.1 (μM) + IMT at the concentration (μM) in c1 of the row (30-0), IMT 0.94 µM): 23%
- Measured residual activity (%) based on an untreated control group (=100%) ([2]; Teriflunomide 3.3 (μM) + IMT at the concentration (μM) in c1 of the row (30-0), IMT 0.06 µM): 24%
- Measured residual activity (%) based on an untreated control group (=100%) ([2]; Teriflunomide 3.3 (μM) + IMT at the concentration (μM) in c1 of the row (30-0), IMT 0.47 µM): 23%
- Measured residual activity (%) based on an untreated control group (=100%) ([2]; Teriflunomide 3.3 (μM) + IMT at the concentration (μM) in c1 of the row (30-0), IMT 30 µM): 22%
- Measured residual activity (%) based on an untreated control group (=100%) ([2]; Teriflunomide 10 (μM) + IMT at the concentration (μM) in c1 of the row (30-0), IMT 0.12 µM): 23%
- Measured residual activity (%) based on an untreated control group (=100%) ([2]; Teriflunomide 10 (μM) + IMT at the concentration (μM) in c1 of the row (30-0), IMT 0.94 µM): 19%
- Measured residual activity (%) based on an untreated control group (=100%) ([2]; Teriflunomide 30 (μM) + IMT at the concentration (μM) in c1 of the row (30-0), IMT 0.03 µM): 19%
- Measured residual activity (%) based on an untreated control group (=100%) ([2]; Teriflunomide 30 (μM) + IMT at the concentration (μM) in c1 of the row (30-0), IMT 30 µM): 13%
- combination of IMT and GLUTi compared to treatment with only the GLUTi BAY-876 alone ([2]; A2780, CTG matrix, 30 μM to 15 nM IMT + 30 μM to 40 nM BAY-876): advantage of the combination
- final tumour volume after completion of the study ([3]; 100 mg/kg IMT + 12.5 or 25 mg/kg AZD6244, oral, 21 days, compared to the same amounts of MEK inhibitor alone (FIG. 2)): advantage of the combination treatment
- tolerability (changes in body weight, acute overt effects) ([3]; combination administration of IMT and AZD6244 over the course of the study): well tolerated
- combination of IMT and GLUTi compared to treatment with only the GLUTi BAY-876 alone [4]: advantage of the combination

From patent publication US20240252454A1, “COMPOSITION COMPRISING AN INHIBITOR OF MITOCHONDRIAL TRANSCRIPTION” (LEAD DISCOVERY CENTER GMBH, priority 2021, published 2024)
